This experiment deals with T1, recombinant human CL receptor/RAMP1 (Homo sapiens, UniProt O60894+Q16602).
T1 construct: expressed in transfected cells; membranes
The experiment in a line: Recombinant receptor binding assay (125I-hCGRP). The conditions noted are these: membranes of HEK 293 cells expressing recombinant human CL receptor/RAMP1; 10 pM 125I-hCGRP. As to the method:
RECOMBINANT RECEPTOR: Human CL receptor (Genbank accession number L76380) was subcloned into the expression vector pIREShyg2 (BD Biosciences Clontech) as a 5′NheI and 3′ PmeI fragment. Human RAMP1 (Genbank accession number AJ001014) was subcloned into the expression vector pIRESpuro2 (BD Biosciences Clontech) as a 5′NheI and 3′NotI fragment. HEK 293 cells (human embryonic kidney cells; ATCC #CRL-1573) were cultured in DMEM with 4.5 g/L glucose, 1 mM sodium pyruvate and 2 mM glutamine supplemented with 10% fetal bovine serum (FBS), 100 units/mL penicillin and 100 μg/mL streptomycin, and maintained at 37° C. and 95% humidity. Cells were subcultured by treatment with 0.25% trypsin with 0.1% EDTA in HBSS. Stable cell line generation was accomplished by co-transfecting 10 μg of DNA with 30 μg Lipofectamine 2000 (Invitrogen) in 75 cm^2 flasks. CL receptor and RAMP1 expression constructs were co-transfected in equal amounts. Twenty-four hours after transfection the cells were diluted and selective medium (growth medium+[…] hygromycin and 1 μg/mL puromycin) was added the following day. A clonal cell line was generated by single cell deposition utilizing a FACS Vantage SE (Becton Dickinson). Growth medium was adjusted to 150 μg/mL hygromycin and 0.5 μg/mL puromycin for cell propagation.
RECOMBINANT RECEPTOR BINDING ASSAY: Cells expressing recombinant human CL receptor/RAMP1 were washed with PBS and harvested in harvest buffer containing 50 mM HEPES, 1 mM EDTA and Complete™ protease inhibitors (Roche). The cell suspension was disrupted with a laboratory homogenizer and centrifuged at 48,000 g to isolate membranes. The pellets were resuspended in harvest buffer plus 250 mM sucrose and stored at −70° C. For binding assays, 20 μg of membranes were incubated in 1 mL binding buffer (10 mM HEPES, pH 7.4, 5 mM MgCl2, and 0.2% BSA) for 3 h at room temperature containing 10 pM ^125I-hCGRP (GE Healthcare) and antagonist. The assay was terminated by filtration through 96-well GFB glass fiber filter plates (PerkinElmer) that had been blocked with 0.05% polyethyleneimine. The filters were washed 3 times with ice-cold assay buffer (10 mM HEPES, pH 7.4, and 5 mM MgCl2). Scintillation fluid was added and the plates were counted on a Topcount (Packard). Non-specific binding was determined and the data analysis was carried out with the apparent dissociation constant (Ki) determined by using a non-linear least squares fitting the bound CPM data to the equation below: […]
Where Y is observed CPM bound, Ymax is total bound counts, Ymin is non specific bound counts, (Ymax−Ymin) is specific bound counts, % Imax is the maximum percent inhibition, % I min is the minimum percent inhibition, radiolabel is the probe, and the Kd is the apparent dissociation constant for the radioligand for the receptor as determined by hot saturation experiments.

Data on seven compounds can be found in patent US20140005214A1, “PIPERIDINONE CARBOXAMIDE SPIROHYDANTOIN CGRP RECEPTOR ANTAGONISTS” (priority 2011, published 2014).

T1 sequence (Q16602 23-461): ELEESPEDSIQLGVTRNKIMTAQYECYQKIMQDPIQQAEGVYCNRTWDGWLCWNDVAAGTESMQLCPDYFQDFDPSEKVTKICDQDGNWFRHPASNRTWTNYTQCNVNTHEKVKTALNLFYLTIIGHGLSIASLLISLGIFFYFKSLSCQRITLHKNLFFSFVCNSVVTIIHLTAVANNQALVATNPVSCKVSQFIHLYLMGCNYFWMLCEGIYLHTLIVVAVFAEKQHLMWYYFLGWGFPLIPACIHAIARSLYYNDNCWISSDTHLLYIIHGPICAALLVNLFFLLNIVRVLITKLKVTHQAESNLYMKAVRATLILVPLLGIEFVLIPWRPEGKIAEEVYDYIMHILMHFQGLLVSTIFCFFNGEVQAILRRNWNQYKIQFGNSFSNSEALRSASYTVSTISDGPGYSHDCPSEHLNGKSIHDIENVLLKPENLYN
T1 sequence (O60894 27-148): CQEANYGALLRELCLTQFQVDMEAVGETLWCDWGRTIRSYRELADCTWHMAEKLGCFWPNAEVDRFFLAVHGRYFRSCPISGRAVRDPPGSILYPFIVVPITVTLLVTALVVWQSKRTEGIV

On to `C[C@@H]1[C@H](c2cc(F)cc(F)c2F)C[C@H](NC(=O)c2ccc3c(c2)C[C@@]2(C3)C(=O)NC(=O)N2C)C(=O)N1CC(F)(F)F` [Example 1, (4S)-3-Methyl-N-[(3S,5S,6R)-6-methyl-2-oxo-1-(2,2,2-trifluoroethyl)-5-(2,3,5-trifluorophenyl)piperidin-3-yl]-2,5-dioxo-1′,3′-dihydrospiro[imidazolidine-4,2′-indene]-5′-carboxamide], for which the Ki came to 0.042 nM. Consider `C[C@@H]1[C@H](c2c(F)ccc(F)c2F)C[C@H](NC(=O)c2ccc3c(c2)C[C@@]2(C3)C(=O)NC(=O)N2C)C(=O)N1CC(F)(F)F` [Example 2], for which the Ki amounted to 0.048 nM. Next, `C[C@@H]1[C@H](c2ccccc2)C[C@H](NC(=O)c2ccc3c(c2)C[C@@]2(C3)C(=O)NC(=O)N2C)C(=O)N1CC(F)(F)F` [Example 3]: 0.36 nM. As for `C[C@@H]1[C@H](c2c(F)c(F)cc(F)c2F)C[C@H](NC(=O)c2ccc3c(c2)C[C@@]2(C3)C(=O)NC(=O)N2C)C(=O)N1CC(F)(F)F` [Example 4], the Ki was determined as 0.036 nM. Next, `Cc1ccccc1[C@@H]1C[C@H](NC(=O)c2ccc3c(c2)C[C@@]2(C3)C(=O)NC(=O)N2C)C(=O)N(CC(F)(F)F)[C@@H]1C` [Example 5]: 1.9 nM; `Cc1cccc([C@@H]2C[C@H](NC(=O)c3ccc4c(c3)C[C@@]3(C4)C(=O)NC(=O)N3C)C(=O)N(CC(F)(F)F)[C@@H]2C)c1` [Example 6]: 1.8 nM; `Cc1c(F)cccc1[C@@H]1C[C@H](NC(=O)c2ccc3c(c2)C[C@@]2(C3)C(=O)NC(=O)N2C)C(=O)N(CC(F)(F)F)[C@@H]1C` [Example 7]: 0.5 nM.
